Laboratory results published in patent US10149907B2, “Combinations of a photosensitizer with a hydrogen sulfide donor, thioredoxin inhibitor or nitroxide for use in photodynamic therapy” (UNIVERSITY OF EXETER, priority 2014, dated 2018).
Entries after “also recorded” stand apart in the source; their conditions may differ. Read-outs that look alike come from different tables or passages of the source.

Tests used:
[1] = tested on: A431 cells; conditions: for cell viability, percentage of untreated control: 500 μM
Method: A431 cells were seeded at a density of 1×10^5 cells/ml in 96 well plates and incubated under 2% O2 for 48 h prior to treatment. After 24 h, the culture medium was replaced and the cells were placed back into the incubators under 2% O2. Following this incubation period, the culture medium was then removed and the plates were washed with PBS. The cells were then treated with 1 mM MAL in the absence or presence of one of the compounds of interest and then incubated again at 2% O2 for 3 h. For experiments carried out with SRHDs, this treatment step was carried out for 5 h at 2% O2. After treatment, the cells were washed with PBS, the culture medium was replaced and the cells were placed back under 2% O2 for 3 h. Following this final incubation, cell death was analysed using the resazurin viability assay.
Resazurin (7-hydroxy-3H-phenoxazin-3-one 0-oxide) is a weakly fluorescent blue dye used primarily in oxidation-reduction cell viability assays. Irreversible NADH-dependent reduction by the mitochondria in mammalian cells leads to the production of resorufin, a highly fluorescent product with excitation at 571 nm, emission at 585 nm.
A431 cells were seeded into 96 well plates at a density of 1.5*10^6 cells per ml (200 μl per well, 3*10^5 cells) and incubated for 24 h to adhere. Following incubation, the cells were washed and treated with the compound of interest for the relevant time, and then washed with PBS. […] After a 2 h incubation, the fluorescence of each well was measured (excitation: 571 nm, emission: 585 nm) using a fluorescence plate reader. Data from these experiments was plotted as a percentage of cell viability compared to untreated control cells.

[2] = tested on: A431 cells; test: cells; format: cell-based; conditions: for effect on photodynamic cell killing compared to MAL and irradiation only / modes of cell death (early apoptosis, late apoptosis, necrosis): 1 mM MAL + SRHD 1 μM + irradiation; for modes of cell death (early apoptosis, late apoptosis, necrosis): compared to MAL and irradiation, FIG. 2, 4
Method: A431 cells (human epithelial squamous cell carcinoma cells) were seeded at a density of 1×10^6 cells/ml in T12.5 cm^2 flasks and incubated under 2% O2 for 48 h prior to treatment. After 24 h, the culture medium was replaced and the cells were placed back into the incubators under 2% O2. Following this incubation period, the culture medium was then removed and the flasks were washed with PBS. The cells were then treated with one of the SRHDs and incubated at 2% O2 for 2 h, after which MAL was added to a final concentration of 1 mM and the cells were incubated at 2% O2 for 3 h. This meant in total, the cells were treated with the SRHDs for 5 h.
Following this final incubation, cell death was analysed by annexin V-FITC and propidium iodide staining in conjunction with flow cytometry.
(§1) Cell death analysis by flow cytometry was carried out using the annexin V-FITC/propidium iodide protocol. This protocol allows a quantitative assessment of cell death, particularly specific modes of death, and involves staining the cells with fluorescein isothiocyanate-conjugated annexin A5 (annexin V-FITC) and propidium iodide (PI). Positive staining with annexin V-FITC alone indicates an apoptotic cell; positive staining with PI alone indicates a necrotic cell and dual staining of both annexin V and PI indicates a “late apoptotic” cell.
From each flask being assessed, the old medium was removed and placed into a corresponding individual 15 ml Falcon tube in order to collect any cells that may have detached from the surface. The flask was washed once with 1 ml PBS; also deposited in the Falcon tubes. Trypsin (500 μl) was added to each flask and the flasks were returned to the incubator with their caps loosened. Cell detachment was monitored using an inverted light microscope, until 50% of the cells were detached. The flasks were then lightly tapped to detach the remainder of the cells. Medium (2 ml) was added to each flask in order to neutralise the trypsin present before being removed and dispensed into the Falcon tubes. One more wash with PBS was carried out in order to ensure any cells left in the flasks were collected. The Falcon tubes were then centrifuged at 490 g for 3 min, forming a pellet at the bottom of the tube. The supernatant was discarded, and the cells were re-suspended in 5 ml of PBS, in order to wash them, before being centrifuged again at 490 g for 3 min. […] The Falcon tubes were placed on ice and in the dark for 15 min to allow annexin V staining. […] The samples were then ready to be assessed by flow cytometry.
(§2) The following flow cytometry process of sample detection was used. When using annexin V-FITC and PI, the detectors being used were FL1 (λmax=520 nm) and FL3 (λmax=670 nm), respectively, each with their own logarithmic histogram generated by the software. The intensity of the fluorescence detected is measured on a logarithmic scale on the x-axis and the y-axis represents the number of cells detected at a given fluorescence intensity. A plot of FL1/FL3 produces a 4-quadrant graph, where unstained and untreated cells are located in the bottom left quadrant, representing any cells found in the 1st decade of the single plot logarithmic histograms. Single staining with annexin V-FITC and PI are located in the bottom right and top left quadrant, respectively, and dual staining is located in the top right quadrant. These quadrants represent any cells detected above the 1st decade of the logarithmic histograms.

[3] = tested on: A431 cells; test: Photodynamic cell killing in the presence of inhibitors of the thioredoxin antioxidant system or nitroxides (annexin V-FITC/propidium iodide flow cytometry); format: cell-based, human; conditions: for cell death: 3 h, irradiation
Method: After this treatment, the cells were irradiated for 5 min (630 nm, 25 J/cm^2), then washed with PBS and the culture medium was replaced, after which the cells were placed back under 2% O2 and incubated for a further 3 h. Following this final incubation, cell death was analysed by annexin V-FITC and propidium iodide staining in conjunction with flow cytometry.
as §1
From each flask being assessed, the old medium was removed and placed into a corresponding individual 15 ml Falcon tube in order to collect any cells that may have detached from the surface. The flask was washed once with 1 ml PBS; also deposited in the Falcon tubes. Trypsin (500 μl) was added to each flask and the flasks were returned to the incubator with their caps loosened. Cell detachment was monitored using an inverted light microscope, until 50% of the cells were detached. The flasks were then lightly tapped to detach the remainder of the cells. Medium (2 ml) was added to each flask in order to neutralise the trypsin present before being removed and dispensed into the Falcon tubes. One more wash with PBS was carried out in order to ensure any cells left in the flasks were collected. The Falcon tubes were then centrifuged at 490 g for 3 min, forming a pellet at the bottom of the tube. The supernatant was discarded, and the cells were re-suspended in 5 ml of PBS, in order to wash them, before being centrifuged again at 490 g for 3 min. The wash stage was carried out once more before re-suspending the cell pellet in 95 μl of ice cold calcium (Ca^2+) buffer (50 mM HEPES, 700 mM NaCl, 12.5 mM CaCl2, pH 7.4) and adding 5 μl 12.5 μg/ml of annexin V-FITC (final concentration, 1.25 μg/ml), under reduced light conditions to prevent bleaching of the FITC. The Falcon tubes were placed on ice and in the dark for 15 min to allow annexin V staining. After 15 min, 860 μl of Ca^2+ buffer (10 mM Hepes adjusted to pH 7.4, 140 mM NaCl and 2.5 mM CaCl2) was added, followed by 40 μl of 1 mg/ml PI in water (final concentration, 0.04 mg/ml) to give a final volume of 1 ml. The samples were then ready to be assessed by flow cytometry.
as §2

[4] = tested on: A431 cells; test: Mitochondrial reactive oxygen species generation during photodynamic irradiation, MitoSOX flow cytometry; format: cell-based, human; conditions: 3 hours, irradiated
Method: A431 cells were treated concurrently with AP39-C10 (10, 100 or 1000 nM) for 5 hours, MAL (1 mM) for 3 hours and MitoSOX (2.5 μM) for 1 hour, after which they were irradiated for 5 min (630 nm, 25 J/cm^2) and MitoSOX (mito-2-OH-E^+) fluorescence, indicative of mitochondrial oxidant production, was immediately analysed by flow cytometry. Results are set out in FIG. 23.
Mitochondria-targeted dihydroethidium (i.e. MitoSOX) was used to assess the production of mitochondrial reactive oxygen species (ROS) by PpIX photochemical reactions and to determine the effects of AP39-C10 on this process. All of the results are represented as a percentage of the untreated controls (100.0±8.5%). The fluorescence of the photoirradiated cells, which had been pre-treated with MAL, was 193.7±7.3% (p<0.001 c.f. untreated controls).

[5] = 1 mM MAL + SRHD 1 μM (5 h) + irradiation, 3 h post-irradiation
[6] = dark toxicity, without irradiation, SRHD 1 μM, 5 h, FIG. 1, 3

Compound | cell death [2, 5] | modes of cell death (early apoptosis, late apoptosis, necrosis) [2] | cell viability, percentage of untreated control ([1]; 5 hours, FIG. 15, 16) | cell death [2, 6] | other results
NC(=S)c1ccc(O)cc1 [4-HTB, 4-hydroxythiobenzamide] | 22.5±5.5% | no effect on the types of cell death observed compared to treatment with MAL and irradiation | – | – | concentration up to which treatment was well tolerated ([1]; 5 hours, range 0.1-500 μM): up to 500 μM; effect on photodynamic cell killing compared to MAL and irradiation only [2]: no statistically significant effect on photodynamic cell killing
Oc1ccc(-c2cc(=S)ss2)cc1 [ADT-OH, 5-(4-hydroxyphenyl)-3H-1,2-dithiole-3-thione] | 25.7±6% | no effect on the types of cell death observed compared to treatment with MAL and irradiation | 76.7±1.3% | – | effect on photodynamic cell killing compared to MAL and irradiation only [2]: no statistically significant effect on photodynamic cell killing
O=C(CCCCCCC[P+](c1ccccc1)(c1ccccc1)c1ccccc1)Oc1ccc(-c2cc(=S)ss2)cc1 [AP39-C8] | 46.3±2.1% | – | 20.1±4.5% | 14.9±2.3% | –
O=C(CCCCCCCCCCC[P+](c1ccccc1)(c1ccccc1)c1ccccc1)Oc1ccc(-c2cc(=S)ss2)cc1 [AP39-C12] | 51.6±3.2% | – | 13.3±1.8% | 11.7±1.5% | –
NC(=S)c1ccc(OC(=O)CCCCCCC[P+](c2ccccc2)(c2ccccc2)c2ccccc2)cc1 [AP123-C8] | 67.5±6.4% | – | 13.2±1.8% | 13.2±3.1% | –
NC(=S)c1ccc(OC(=O)CCCCCCCCCCC[P+](c2ccccc2)(c2ccccc2)c2ccccc2)cc1 [AP123-C12] | 72.5±2.0% | less effect on early apoptosis, instead increasing late apoptosis and necrosis | 17.0±0.7% | 12.7±3.0% | –
CCC(C)SSc1ncc[nH]1 (stereo not drawn) [PX12, 2-[(1-Methylpropyl)dithio]-1H-imidazole] | – | – | – | – | cell viability, percentage of untreated control ([1]; 24 hours): 47.5±4.9%; concentration up to which well tolerated / no cytotoxicity ([1]; 24 hours): ≤ 100 µM; cell death ([3]; 1 mM MAL + co-treatment 10 μM): 70.5±4.5%; potentiating effect on MAL photodynamic cell killing ([3]; summary of Examples 2A, 3A): more robust potentiating effect; MitoSOX fluorescence, percentage of untreated cells ([4]; MAL 1 mM + co-treatment 10 μM): 211.4±17.6%
CC[PH](CC)(CC)[Au][S][C@@H]1O[C@H](COC(C)=O)[C@@H](OC(C)=O)[C@H](OC(C)=O)[C@H]1OC(C)=O [auranofin] | – | – | – | – | concentration up to which well tolerated / no cytotoxicity ([1]; human): ≤ 10 µM; modes of cell death [3]: primarily increased necrotic cell death; also recorded: slightly increased late apoptotic cell death; also recorded: concentration-dependent increases in late apoptosis and necrosis, with little effect on early apoptosis; potentiating effect on MAL photodynamic cell killing [3]: more robust potentiating effect
aurothiomalate [ATM] | – | – | – | – | tolerance (dark toxicity) ([1]; 0.1-500 μM, 24 hours): well tolerated at all concentrations tested; cell death ([3]; 1 mM MAL + co-treatment 20 μM): 66.7±4.9%; potentiating effect on MAL photodynamic cell killing ([3]; summary of Examples 2A, 3A): more robust potentiating effect; MitoSOX fluorescence, percentage of untreated cells ([4]; MAL 1 mM + co-treatment 20 μM): 192.4±5.6%
